In US9345710B2, “Inhibitors of phosphatidic acid phosphohydrolase (PAP) enzymes for the treatment of cancers that depend on members of the ErbB/HER tyrosine kinase receptor family” (PONTIFICA UNIVERSIDAD CATOLICA DE CHILE, priority 2011, dated 2016):
Where “and” joins values, the source holds several entries; their conditions need not be identical. Equal values may be shown once.

Key:
EGFR = assay: Indirect immunofluorescence of EGFR distribution in HeLa cells; set-up: EGFR endocytosis (immunofluorescent pattern): dose or concentration left out as unconfirmed; conditions: for EGFR endocytosis (immunofluorescent pattern): […] μM propranolol, […] μM desipramine; for EGFR staining pattern by indirect immunofluorescence: 30 min, 100 μM D- or L-propranolol, 20 μM desipramine
Procedure: HeLa cells grown on glass coverslips were washed three times with cold phosphate buffer saline (PBS) and incubated 2 h in serum free DMEM-HEPES media at 37° C., in order to accumulate EGFR on the cell surface. Then the cells were washed with PBS and fixed for 30 min at room temperature with 4% paraformaldehyde in PBS supplemented with 0.1 mM CaCl2 and 1 mM MgCl 2 (PBS-CM). After washing three times with PBS plus 0.2% gelatin (300 Bloom, Sigma Aldrich, PBS-CM-G), 5 minutes each time, cells were permeabilized with 0.2% Triton X-100 for 10 minutes at room temperature and incubated for 12 h at 4° C. with anti-EGFR monoclonal antibody (mAb) HB8506. After at least 6 washes in PBS-CM-G cells were incubated with secondary antibody anti-mouse IgG coupled to Alexa488 (dilution 1/1000) for 30 min at 37° C.

EGFR at the cell surface [1] = conditions: highest dose 300 μM, 30 min; cited from earlier work
[2] = cited from earlier work
B16F10 cells = assay: Proliferation/viability, melanoma cells B16F10; format: cell-based, mice; conditions: 10 or 30 μM D-Prop, 1 μM Des, alone or combined, 4 days
Procedure: (§1) Viable cells counted in an automatic cell counter after incubation with vital tripan blue dye are represented as % of live cells respect to untreated controls.
(§2) Cells were seeded at a density of 10.000 cells per well in 24-well plates in triplicate and cultured in DMEM supplemented with 10% FBS and antibiotics (penicillin 100 U/ml and streptomycin 100 mg/ml). The medium with the drugs was changed each 24 hours. The respective controls received only culture medium. Viable cells were counted after 4 days of treatment in an automatic cell counter (Countess, Invitrogen) after incubation with vital tripan blue dye and are represented as % of live cells respect to untreated controls.

EGFR at the cell surface [3] = assay: 125I-EGF radioligand binding assay on HeLa cells (EGFR at the cell surface); format: cell-based, human; conditions: for decrease of EGFR at the cell surface (125I-EGF binding): 30 min, HeLa
Procedure: (§3) HeLa cells used for the radioligand binding assays and immunofluorescence to study EGFR endocytosis have been characterized previously in our laboratory (64, 122, 152). The cells were grown to approximately 80% confluence and maintained without serum for 4 h before testing. U87 human […] cells from the ATCC were grown and transfected with pcDNA3.1-EGFRvIII-myc using the lipofectamine method following the manufacturer's instructions (Invitrogen). 100,000 U87 cells were seeded in 15 mm plated and after 48 hours of seeding cells were transfected with 1 μg of plasmid pcDNA3-EGFRvIII-myc. After 48 hours post-transfection the selection medium (DMEM, 10% Fetal Bovine Serum (FBS) supplemented with antibiotics (100 IU/ml penicillin, […] streptomycin) and 0.8 mg/ml Geneticin was added (G418, Sigma). After 2 weeks in selection media, permanently transfected cells were obtained (U87-EGFRvIII).
The radioligand ^125I-human EGF was prepared by the chloramine T method as described (122, 152, 160) yielding specific activities of 50000-70000 cpm/ng. Binding assays were performed in Hanks solution with 20 mM HEPES and 0.2% bovine serum albumin (BSA) for 1 h at 4° C., as described (122). HeLa cells deprived of serum for 4 h were treated for 30 min with the indicated doses of various drugs and then incubated with 20 ng/ml ^125I-EGF at 4° C. in binding medium (MEM-Hank's, 25 mM HEPES, 0.2% BSA RIA grade), stirring for 1 h. The cells were lysed with 1 N NaOH for 2 h at room temperature and the counts per minute of each sample in triplicate was determined in a gamma counter, including a nonspecific binding point obtained by incubation with an excess (500 fold) of cold ligand, whose value was subtracted from each sample. The radioligand binding in saturating condition provides an estimate of the amount of EGFR on the cell surface.

UCI 101 cells = assay: Proliferation/viability, ovarian cancer cells UCI 101; format: cell-based, human; conditions: 10 or 30 μM D-Prop, 1 μM Des, alone or combined, 4 days
Procedure: as §1, §2

MDCK cells = assay: Proliferation/viability, non-tumoral MDCK cells (selectivity control); format: cell-based, canine; conditions: 10 or 30 μM D-Prop, 1 μM Des, alone or combined, 4 days
Procedure: as §1, §2

H1975 cells = assay: Proliferation/viability, NSCLC cells H1975 (EGFR L858R/T790M); format: cell-based, human; conditions: 10 or 30 μM D-Prop, 1 μM Des, alone or combined, 4 days
Procedure: as §1, §2

GBM1 cells = assay: Proliferation/viability of primary glioblastoma cells GBM1; format: cell-based, human; conditions: 10 μM D-Prop, 1 μM Des, alone or combined, 4 days
Procedure: as §2

U87-EGFRvIII cells = assay: Proliferation/viability of cultured tumor cells, U87-EGFRvIII; format: cell-based, human; conditions: 10 μM D-Prop, 1 μM Des, alone or combined, 4 days
Procedure: as §3
as §2, with “The respective controls received only culture medium.” left out

U87 cells = assay: Proliferation/viability of cultured tumor cells, U87; format: cell-based, human; conditions: 10 μM D-Prop, 1 μM Des, alone or combined, 4 days
Procedure: as §3
as §2, with “The respective controls received only culture medium.” left out

Which results are given for `CC(C)NCC(O)COc1cccc2ccccc12` (racemic) [propranolol]?
EGFR endocytosis (immunofluorescent pattern) (EGFR): induce endocytosis of the EGFR; decrease of the levels of EGFR at the cell surface (125I-EGF binding) (EGFR at the cell surface [1]): 80%; half-time of concentration in circulation ([2]; human, in vivo): 4 to 6 h

With `CC(C)NC[C@@H](O)COc1cccc2ccccc12` [D-propranolol] as the compound, how does the “viable cells (% of live cells respect to untreated controls), B16F10” value (B16F10 cells) read?
The value was “sensitive”.

What about the “decrease of EGFR at the cell surface (125I-EGF binding)” value (EGFR at the cell surface [3]; 250 μM) of the same compound?
Its value is about 80%.

What about the “decrease of EGFR at the cell surface (125I-EGF binding)” value (EGFR at the cell surface [3]; […] μM) of the same compound?
Its value is “about 50%”.

What about the “viable cells (% of live cells respect to untreated controls), UCI 101” value (UCI 101 cells) of the same compound?
Its value is “sensitive”.

What about the “EGFR staining pattern by indirect immunofluorescence” value (EGFR) of the same compound?
Its value is “the pattern changed to an intracellular location, mainly at the perinuclear region”.

And the “viable cells (% of live cells respect to untreated controls), MDCK” value (MDCK cells)?
Its value is “not affected”.

And the “viable cells (% of live cells respect to untreated controls), H1975” value (H1975 cells)?
The value was “sensitive”.

What about the “proliferation of GBM1 cells” value (GBM1 cells) of the same compound?
The value was “decrease their proliferation”.

And the “proliferation of U87-EGFRvIII cells” value (U87-EGFRvIII cells)?
Its value is “decrease their proliferation”.

And the “proliferation of U87 cells” value (U87 cells)?
The value was “not sensitive”.

What about the “concentration in the blood of patients” value ([2]; patients treated for arrhythmia, 12 h after the last dose (ref. 14)) of the same compound?
The value was about 10 µM.

Which results are given for `CC(C)NC[C@H](O)COc1cccc2ccccc12` [L-propranolol]?
decrease of EGFR at the cell surface (125I-EGF binding) (EGFR at the cell surface [3]; 250 μM): ~80%; decrease of EGFR at the cell surface (125I-EGF binding) (EGFR at the cell surface [3]; […] μM): about 50%; EGFR staining pattern by indirect immunofluorescence (EGFR): the pattern changed to an intracellular location, mainly at the perinuclear region

For `CNCCCN1c2ccccc2CCc2ccccc21` [desipramine], which “viable cells (% of live cells respect to untreated controls), B16F10” value (B16F10 cells) is on record?
Its value is “sensitive”.

What about the EC50 (EGFR at the cell surface [3]; HeLa cells, serum deprived 4 h, drug 30 min, read-out: EC50 for decrease in 125I-EGF binding (EGFR at the cell surface)) of the same compound?
The EC50 was 20 to 25 µM and ~20 µM.

What about the “viable cells (% of live cells respect to untreated controls), UCI 101” value (UCI 101 cells) of the same compound?
The value was “sensitive”.

And the “EGFR staining pattern by indirect immunofluorescence” value (EGFR)?
Its value is “the pattern changed to an intracellular location, mainly at the perinuclear region”.

And the “EGFR endocytosis (immunofluorescent pattern)” value (EGFR)?
Its value is “induce endocytosis of the EGFR”.

What about the “viable cells (% of live cells respect to untreated controls), MDCK” value (MDCK cells) of the same compound?
The value was “not affected”.

What about the “viable cells (% of live cells respect to untreated controls), H1975” value (H1975 cells) of the same compound?
Its value is “sensitive”.

And the “proliferation of GBM1 cells” value (GBM1 cells)?
The value was “decrease their proliferation”.

What about the “proliferation of U87-EGFRvIII cells” value (U87-EGFRvIII cells) of the same compound?
The value was “decrease their proliferation”.

And the “proliferation of U87 cells” value (U87 cells)?
Its value is “not sensitive”.

What about the “reported effective blood concentration” value ([2]; human, in vivo) of the same compound?
Its value is 1 µM.
